Experimental data taken from the supplement of paper PMC8882468.

Experiments:
Assay in all cases: CTG-3D luminescence at 96 h relative to day-0 seeding control (ratio to day 0); higher = more growth / less cytotoxicity; PDxO 3D drug screen, 96 h, CTG-3D normalised to day-0 seeding control.
MDA-MB-231 = test system: MDA-MB-231
HCI-005.E2 = test system: HCI-005.E2 (organoid from a breast cancer xenograft with a HER2-positive history)
HCI-017.E2 = test system: HCI-017.E2 (organoid from an ER-positive breast cancer xenograft)
HCI-011.E2 = test system: HCI-011.E2 (organoid from an ER-positive breast cancer xenograft)
HCI-008 = test system: HCI-008 (organoid from a HER2-enriched breast cancer xenograft)
HCI-015 = test system: HCI-015 (organoid from a triple-negative breast cancer xenograft)
HCI-027 = test system: HCI-027 (organoid from a triple-negative breast cancer xenograft)

CC(=O)O[C@H]1C(=O)[C@@]2(C)[C@H]([C@H](OC(=O)c3ccccc3)[C@]3(O)C[C@H](OC(=O)[C@H](O)[C@@H](NC(=O)c4ccccc4)c4ccccc4)C(C)=C1C3(C)C)[C@]1(OC(C)=O)CO[C@@H]1C[C@@H]2O [paclitaxel]
CTG-3D luminescence at 96 h
Details | 12.5 pM | 0.00025 µM | 0.005 µM | 0.1 µM | 1 µM | 10 µM | 100 µM | 625 fM
HCI-005.E2 | 1.56 | 1.54 | 1.53 | 1.34 | 1.49 | 1.85 | 1.39 | 1.97
HCI-011.E2 | 1.3 | 1.33 | 1.09 | 1.41 | 1.34 | 1.77 | 1.8 | 1.52
HCI-017.E2 | 1.06 | 1.2 | 1.2 | 1.2 | 1.17 | 1.23 | 1.3 | 1.35
MDA-MB-231 | 3.73 | 3.45 | 2.71 | 2.03 | 2 | 2.42 | 1.09 | 3.85

CTG-3D luminescence at 96 h
Details | 12.5 pM | 0.00025 µM | 0.005 µM | 0.1 µM | 1 µM | 10 µM | 100 µM | 625 fM
HCI-008, days in culture: 228 | 1.67 | 1.93 | 0.719 | 0.575 | 0.627 | 0.764 | 0.554 | 1.55
HCI-008, days in culture: 244 | 1.16 | 1.96 | 1.22 | 0.925 | 0.832 | 0.852 | 0.58 | 2.02
HCI-011.E2, days in culture: 74 | 2.01 | 2.21 | 1.82 | 1.95 | 1.91 | 2.73 | 1.85 | 2.25
HCI-015, days in culture: 172 | 1.71 | 0.614 | 1.22 | 0.629 | 0.689 | 0.702 | 0.612 | 1.2
HCI-015, days in culture: 191 | 1.87 | 1.47 | 1.01 | 0.626 | 0.566 | 0.463 | 0.334 | 1.82
HCI-015, days in culture: 218 | 1.85 | 1.53 | 0.801 | 0.428 | 0.505 | 0.46 | 0.39 | 1.86
HCI-017.E2, days in culture: 85 | 2.33 | 1.88 | 1.23 | 0.935 | 1.09 | 1.04 | 0.81 | 1.92
HCI-027, days in culture: 176 | 2.38 | 1.31 | 0.504 | 0.265 | 0.283 | 0.392 | 0.34 | 2.59
HCI-027, days in culture: 194 | 1.95 | 1.6 | 0.751 | 0.185 | 0.242 | 0.511 | 0.427 | 1.65
HCI-027, days in culture: 201 | 2.25 | 2.16 | 0.808 | 0.215 | 0.284 | 0.563 | 0.342 | 2.03

NC(=O)Nc1cc(-c2cccc(F)c2)sc1C(=O)N[C@H]1CCCNC1 [AZD7762]
CTG-3D luminescence at 96 h
Details | 12.5 pM | 0.00025 µM | 0.005 µM | 0.1 µM | 1 µM | 10 µM | 100 µM | 625 fM
HCI-005.E2 | 1.82 | 1.75 | 1.8 | 1.6 | 0.674 | 0.164 | 0.00356 | 1.95
HCI-011.E2 | 1.57 | 1.86 | 1.56 | 1.77 | 1.66 | 1.32 | 0.00993 | 1.71
HCI-017.E2 | 1.919 | 2 | 2.23 | 1.853 | 1.22 | 1.22 | 0.00946 | 2.25
MDA-MB-231 | 4.48 | 4.32 | 4.52 | 3.96 | 1.4 | 0.628 | 0.0187 | 4.49

CTG-3D luminescence at 96 h
Details | 12.5 pM | 0.00025 µM | 0.005 µM | 0.1 µM | 1 µM | 10 µM | 100 µM | 625 fM
HCI-008, days in culture: 228 | 1.63 | 1.9 | 1.65 | 1.14 | 0.449 | 0.196 | -0.128 | 1.86
HCI-008, days in culture: 244 | 1.39 | 1.87 | 2.45 | 1.66 | 0.881 | 0.413 | 0.00425 | 2.38
HCI-011.E2, days in culture: 74 | 2.04 | 2.16 | 1.88 | 1.68 | 1.62 | 1.33 | 0.00724 | 1.92
HCI-015, days in culture: 172 | 2.49 | 1.87 | 2.19 | 0.668 | 0.336 | 0.117 | 0.000941 | 2.32
HCI-015, days in culture: 191 | 1.83 | 1.42 | 1.11 | 0.566 | 0.248 | 0.12 | -0.000313 | 1.28
HCI-015, days in culture: 218 | 1.16 | 1.65 | 1.65 | 0.692 | 0.211 | 0.102 | -0.000297 | 1.59
HCI-017.E2, days in culture: 85 | 2.53 | 3.05 | 2.76 | 2.37 | 1.67 | 1.26 | 0.0135 | 2.7
HCI-027, days in culture: 176 | 1.95 | 1.34 | 2.55 | 0.208 | 0.0981 | 0.0356 | -0.00164 | 2.05
HCI-027, days in culture: 194 | 1.41 | 1.22 | 1.34 | 0.159 | 0.0911 | 0.0685 | -0.00154 | 1.61
HCI-027, days in culture: 201 | 1.43 | 2.16 | 2.35 | 0.166 | 0.0767 | 0.078 | -1.51e-05 | 1.6

Cc1cc(Nc2ncc(Cl)c(Nc3ccccc3S(=O)(=O)C(C)C)n2)c(OC(C)C)cc1C1CCNCC1 [ceritinib]
CTG-3D luminescence at 96 h
Details | 12.5 pM | 0.00025 µM | 0.005 µM | 0.1 µM | 1 µM | 10 µM | 100 µM | 625 fM
HCI-005.E2 | 1.54 | 1.76 | 1.79 | 1.7 | 1.44 | 0.347 | 0.0328 | 1.97
HCI-011.E2 | 1.68 | 1.409 | 1.37 | 1.85 | 1.4 | 0.353 | -0.00338 | 1.92
HCI-017.E2 | 1.94 | 2.16 | 2.23 | 2.22 | 1.988 | 0.0699 | -0.00443 | 2.22
MDA-MB-231 | 4.39 | 4.39 | 4.6 | 4.48 | 4.36 | 0.0178 | -0.011 | 4.51

CTG-3D luminescence at 96 h
Details | 12.5 pM | 0.00025 µM | 0.005 µM | 0.1 µM | 1 µM | 10 µM | 100 µM | 625 fM
HCI-008, days in culture: 228 | 1.69 | 1.81 | 1.55 | 1.3 | 1.15 | -0.138 | -0.142 | 1.59
HCI-008, days in culture: 244 | 1.42 | 1.74 | 1.85 | 1.55 | 1.47 | 0.0065 | -0.00443 | 2.17
HCI-011.E2, days in culture: 74 | 1.46 | 1.59 | 1.77 | 2.11 | 1.4 | 0.0662 | -0.00371 | 1.72
HCI-015, days in culture: 172 | 1.51 | 1.75 | 2.29 | 1.44 | 1.69 | 0.00586 | -0.0049 | 2.67
HCI-015, days in culture: 191 | 2.15 | 1.47 | 1.3 | 0.962 | 1.19 | 0.00448 | -0.00428 | 1.68
HCI-015, days in culture: 218 | 1.77 | 1.1 | 1.51 | 1.54 | 1.33 | 0.00686 | -0.00473 | 1.61
HCI-017.E2, days in culture: 85 | 2.65 | 2.49 | 2.67 | 2.69 | 2.49 | 0.446 | -0.00537 | 2.49
HCI-027, days in culture: 176 | 2.26 | 1.27 | 2.21 | 1.68 | 1.81 | 0.00647 | -0.00642 | 2.34
HCI-027, days in culture: 194 | 1.42 | 1.26 | 1.1 | 1.96 | 1.8 | 0.0105 | -0.00633 | 1.39
HCI-027, days in culture: 201 | 2.21 | 1.72 | 1.65 | 1.66 | 1.47 | 0.0089 | -0.00463 | 1.31
